Experimental data reported in patent publication US6998470B1, “Process for large-scale isolation and purification of hypothalamic inhibitory factor” (Bion, Inc., priority 1997, dated 2006).

Columns and labels:
[1] = tested on: Na+-K+-ATPase pump activity in human erythrocytes; experiment: standard human erythrocyte 86Rb+ uptake assay; type: cell-based; conditions: RBC 86Rb+ uptake assay
Excerpt: As defined herein, purified HIF refers to HIF which is substantially free of or isolated from other tissue or fluid protein components and contaminants. In addition, the purified HIF of the present invention has at least 40% activity recovery. Preferably, the purified HIF has about 50–75% activity recovery, more preferably the purified HIF has about 75–90% activity recovery and most preferably, the purified HIF has about 90–95% activity recovery. As defined herein, “activity recovery” of HIF is the activity of HIF as measured indirectly by, for example a biological assay such as specific inhibition of Na^+-K^+-ATPase pump activity in human erythrocytes, or as measured directly, for example, by UV absorbance following HPLC chromatography.
(§1) Several available anti-digoxin antibodies were studied to determine relative affinity for ouabain.

[2] = biological target: purified Na, K-ATPase; conditions: Haupert et al. 1984; read-out: affinity constant for binding to purified Na, K-ATPase; cited from earlier work
[3] = biological target: T1, monoclonal antibody 26-10 (Mus musculus, UniProt P01631); experiment: 125I competition plate assay using goat-anti-mouse IgG Fab to bind the antibodies; parameters: species or system mice; conditions: read-out: relative affinity (IC50); binding to anti-digoxin mAb 26-10
T1 construct: fused on or other part: Heavy chain of mAb 26-10 (A/J mouse), which forms most of the digoxin/ouabain pocket
T1 sequence (P01631 whole entry, the tested form may be a part): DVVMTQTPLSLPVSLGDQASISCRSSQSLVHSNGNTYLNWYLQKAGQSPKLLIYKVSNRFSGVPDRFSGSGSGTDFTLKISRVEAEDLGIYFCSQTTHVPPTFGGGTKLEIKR
Excerpt: as §1
Monoclonal antidigoxin antibody 26-10 was obtained from A/J mice immunized with a digoxin-human serum albumin (Dig-HSA) conjugate and spleen cells were fused with the non-secreting murine myeloma Sp2/0 cell line (Mudgett-Hunter, M., et al. J. Immunol., 129:1165–1172 (1982)). Hybridoma cells identified by radioimmunoassay (RIA) as secreting anti-digoxin antibody were cloned and grown in tissue culture and amplified in the ascites form in mice. Digoxin specific hybridoma proteins were purified from ascites by a variety of chromatographic methods, including ion-exchange chromatography on DEAE cellulose and affinity chromatography on Digoxin-BSA-Sepharose or ouabain-amine Sepharose.

C[C@@H]1O[C@@H](O[C@H]2C[C@@H](O)[C@]3(CO)[C@H]4[C@H](O)C[C@]5(C)[C@@H](C6=CC(=O)OC6)CC[C@]5(O)[C@@H]4CC[C@]3(O)C2)[C@H](O)[C@H](O)[C@H]1O [ouabain]
amount equal to 1 U (1 U=50% inhibition under standard conditions) [1]: approximately 0.75 pmol
Kd [2]: ~1 nM
IC50 [3]: 300 nM
